Test [1] concerns human monocyte stimulated cytokine production (TNF-α). Kind of test: Monocyte assay (LPS-stimulated TNF-α production). It counts as cell-based. The conditions noted are these: for IC50: 24 h, 200 ng/mL LPS, TNF-α by ELISA; for inhibition at 0.3 µM: read-out: inhibition at 300 nM in the monocyte assay. As to the method:
Effect of IKK-β inhibition on human monocyte stimulated cytokine production was assessed as follows: Monocytes were isolated from heparinized whole blood by Ficoll gradient, followed by purification of CD14+ cells using MACS magnetic cell separation beads. Isolated monocytes were then adhered to 96-well culture plates at 1×10^6 cells/mL in RPMI 1640 10% FBS (JRH Biosciences, Lenexa Kans.) for 2 h. Test compounds are added to the wells 30 minutes prior to stimulation with a final vehicle concentration of 0.1% DMSO. Monocytes were activated by the addition of 200 ng/mL endotoxin (LPS; E. coli serotype 026:B6)(Sigma, St. Louis, Mo.) and incubated for 24 hrs at 37 C. Cell-free supernates were analyzed by ELISA for TNF-α using Pharmingen matched pair Abs. Viability of the cells was determined by 10% trypan blue exclusion.

In test [2] the target is T1, Recombinant human IKKβ (residues 1-737) (Homo sapiens, UniProt O14920).
T1 construct: Recombinant human IKKβ (residues 1-737); GST (C); made in house
T1 sequence (O14920 1-737): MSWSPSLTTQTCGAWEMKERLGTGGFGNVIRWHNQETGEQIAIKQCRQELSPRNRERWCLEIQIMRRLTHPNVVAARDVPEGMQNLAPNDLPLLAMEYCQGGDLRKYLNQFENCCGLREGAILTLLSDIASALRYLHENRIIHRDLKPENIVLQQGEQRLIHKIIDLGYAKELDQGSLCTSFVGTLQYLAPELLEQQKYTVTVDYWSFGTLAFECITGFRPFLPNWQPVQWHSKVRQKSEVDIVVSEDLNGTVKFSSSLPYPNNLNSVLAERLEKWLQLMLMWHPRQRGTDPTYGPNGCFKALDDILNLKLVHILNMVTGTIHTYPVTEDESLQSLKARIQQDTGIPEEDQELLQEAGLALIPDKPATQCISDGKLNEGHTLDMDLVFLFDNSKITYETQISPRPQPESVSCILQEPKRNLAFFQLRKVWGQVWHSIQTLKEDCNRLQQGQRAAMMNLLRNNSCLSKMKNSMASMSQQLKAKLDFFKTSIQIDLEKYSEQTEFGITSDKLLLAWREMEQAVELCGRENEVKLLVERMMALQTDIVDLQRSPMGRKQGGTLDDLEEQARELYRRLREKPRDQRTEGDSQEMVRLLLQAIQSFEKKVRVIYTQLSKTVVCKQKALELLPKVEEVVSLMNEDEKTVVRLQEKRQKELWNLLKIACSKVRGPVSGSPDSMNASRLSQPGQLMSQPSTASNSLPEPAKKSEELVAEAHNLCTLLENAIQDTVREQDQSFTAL
Description: IKK2 assay (TR-FRET). It counts as biochemical. The conditions noted are these: ATP 1 μM final, read-out: pIC50 against IKK2 (converted). The method in brief: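 Baculovirus-expressed C-terminal GST-tagged IKKβ (0.5-5 nM final) in HEPES pH 7.4, MgCl2, CHAPS, DTT, BSA with 1.7% DMSO; 25 nM GST-IB substrate and 1 μM ATP, 15 min at room temperature. EDTA stop; phospho-Ser32/36 detected by Eu-antibody/APC-anti-GST TR-FRET, 665/620 nm ratio.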

Structures are written as SMILES. Counter-ions that a name gives are not always drawn. Where only a bound is given, the exact number is not on record here.

Consider `CCS(=O)(=O)N1CCC(c2c[nH]c3c(C(N)=O)cc(-c4cccc(CN5CCCCC5)c4)cc23)CC1` [Example 1, 3-[1-(ethylsulfonyl)-4-piperidinyl]-5-[3-(1-piperidinylmethyl)phenyl]-1H-indole-7-carboxamide], for which the IC50 is ≤ 1.5 µM in test [1] and ≤ 10 µM in test [2].

`CCS(=O)(=O)N1CCC(c2c[nH]c3c(C(N)=O)cc(-c4cccc(CN5CCNCC5)c4)cc23)CC1` [Example 2, 3-[1-(ethylsulfonyl)-4-piperidinyl]-5-[3-(1-piperazinylmethyl)phenyl]-1H-indole-7-carboxamide]: the IC50 was ≤ 1.5 µM in test [1] and ≤ 10 µM in test [2].

Consider `CCS(=O)(=O)N1CCC(c2c[nH]c3c(C(N)=O)cc(-c4cccc(CN5CCOCC5)c4)cc23)CC1` [Example 3, 3-[1-(ethylsulfonyl)-4-piperidinyl]-5-[3-(4-morpholinylmethyl)phenyl]-1H-indole-7-carboxamide], for which the IC50 in test [1] was ≤ 1.5 µM; in test [2], ≤ 10 µM.

Take `CCS(=O)(=O)N1CCC(c2c[nH]c3c(C(N)=O)cc(-c4cccc(CN(C)CCS(C)(=O)=O)c4)cc23)CC1` [Example 4, 3-[1-(ethylsulfonyl)-4-piperidinyl]-5-[3-({methyl[2-(methylsulfonyl)ethyl]amino}methyl)phenyl]-1H-indole-7-carboxamide]: the IC50 in test [1] was > 1 µM; in test [2], ≤ 10 µM.

As to `CCS(=O)(=O)N1CCC(c2c[nH]c3c(C(N)=O)cc(-c4cccc(CN(C)CCN(C)C)c4)cc23)CC1` [Example 5, 5-(3-{[[2-(dimethylamino)ethyl](methyl)amino]methyl}phenyl)-3-[1-(ethylsulfonyl)-4-piperidinyl]-1H-indole-7-carboxamide], the IC50 was ≤ 1.5 µM in test [1] and ≤ 10 µM in test [2].

Regarding `CCS(=O)(=O)N1CCC(c2c[nH]c3c(C(N)=O)cc(-c4cccc(CN5CCN(CCOCCO)CC5)c4)cc23)CC1` [Example 6, 3-[1-(ethylsulfonyl)-4-piperidinyl]-5-{3-[(4-{2-[(2-hydroxyethyl)oxy]ethyl}-1-Piperazinyl)methyl]phenyl}-1H-indole-7-carboxamide], the IC50 in test [1] is ≤ 1.5 µM; in test [2], ≤ 10 µM.

Regarding `CCS(=O)(=O)N1CCC(c2c[nH]c3c(C(N)=O)cc(-c4cccc(CN5CCCC(CO)C5)c4)cc23)CC1` (centres unmarked) [Example 7, 3-[1-(ethylsulfonyl)-4-piperidinyl]-5-(3-{[3-(hydroxymethyl)-1-piperidinyl]methyl}phenyl)-1H-indole-7-carboxamide], the IC50 in test [1] is ≤ 1.5 µM; in test [2], ≤ 10 µM.

In the case of `CCS(=O)(=O)N1CCC(c2c[nH]c3c(C(N)=O)cc(-c4ccc5c(c4)C(NCC(C)C)CCC5)cc23)CC1` (centres unmarked) [Example 34, 3-[1-(ethylsulfonyl)-4-piperidinyl]-5-{8-[(2-methylpropyl)amino]-5,6,7,8-tetrahydro-2-naphthalenyl}-1H-indole-7-carboxamide trifluoroacetate], the IC50 in test [1] is > 1 µM.

Turning to `CCS(=O)(=O)N1CCC(c2c[nH]c3c(C(N)=O)cc(-c4cc(CNC(C)C)c5c(c4)OCC5)cc23)CC1` [Example 59, 3-[1-(ethylsulfonyl)-4-piperidinyl]-5-(4-{[(1-methylethyl)amino]methyl}-2,3-dihydro-1-benzofuran-6-yl)-1H-indole-7-carboxamide], the inhibition at 0.3 µM in test [1] is 0 to 60%.

Take `CCS(=O)(=O)N1CCC(c2c[nH]c3c(C(N)=O)cc(-c4csc(CN5CCCC5CC(C)C)c4)cc23)CC1` (centres unmarked) [Example 97, 3-[1-(ethylsulfonyl)-4-piperidinyl]-5-(5-{[2-(2-methylpropyl)-1-pyrrolidinyl]methyl}-3-thienyl)-1H-indole-7-carboxamide]: the inhibition at 0.3 µM in test [1] fell in the range of 0 to 60%.

For `CCS(=O)(=O)N1CCC(c2c[nH]c3c(C(N)=O)cc(-c4csc(CNCC(C)(C)C)c4)cc23)CC1` [Example 117, 5-(5-{[(2,2-dimethylpropyl)amino]methyl}-3-thienyl)-3-[1-(ethylsulfonyl)-4-piperidinyl]-1H-indole-7-carboxamide trifluoroacetate], in test [1], the IC50 was ≤ 1.5 µM.

For the compound `CCS(=O)(=O)N1CCC(c2c[nH]c3c(C(N)=O)cc(-c4cccc(-n5cccn5)c4)cc23)CC1` [Example 164, 3-[1-(ethylsulfonyl)-4-piperidinyl]-5-[3-(1H-pyrazol-1-yl)phenyl]-1H-indole-7-carboxamide], the IC50 in test [1] is ≤ 1.5 µM.

For `CCS(=O)(=O)N1CCC(c2c[nH]c3c(C(N)=O)cc(-c4cncc(CNCC5CC5)c4)cc23)CC1` [Example 173, 5-(5-{[(cyclopropylmethyl)amino]methyl}-3-pyridinyl)-3-[1-(ethylsulfonyl)-4-piperidinyl]-1H-indole-7-carboxamide], the inhibition at 0.3 µM in test [1] is 0 to 60%.

`CCCOCCCNCc1ccc(-c2cc(C(N)=O)c3[nH]cc(C4CCN(S(=O)(=O)CC)CC4)c3c2)s1` [Example 198, 3-[1-(ethylsulfonyl)-4-piperidinyl]-5-[5-({[3-(propyloxy)propyl]amino}methyl)-2-thienyl]-1H-indole-7-carboxamide]: in test [1], the inhibition at 0.3 µM was 0 to 60%.

For the compound `CCS(=O)(=O)N1CCC(c2c[nH]c3c(C(N)=O)cc(-c4ccc(CNCC(C)C)s4)cc23)CC1` [Example 243, 3-[1-(ethylsulfonyl)-4-piperidinyl]-5-(5-{[(2-methylpropyl)amino]methyl}-2-thienyl)-1H-indole-7-carboxamide trifluoroacetate], in test [1], the IC50 was ≤ 1.5 µM.

As to `CCOCCN(C)Cc1cc(-c2cc(C(N)=O)c3[nH]cc(C4CCN(S(=O)(=O)CC)CC4)c3c2)cs1` [Example 403, 5-(5-{[[2-(ethyloxy)ethyl](methyl)amino]methyl}-3-thienyl)-3-[1-(ethylsulfonyl)-4-piperidinyl]-1H-indole-7-carboxamide], the IC50 in test [1] is ≤ 1.5 µM.

As to `CCC(C)N1Cc2ccc(-c3cc(C(N)=O)c4[nH]cc(C5CCN(S(=O)(=O)CC)CC5)c4c3)cc2C1` (centres unmarked) [Example 422, 3-[1-(ethylsulfonyl)-4-piperidinyl]-5-[2-(1-methylpropyl)-2,3-dihydro-1H-isoindol-5-yl]-1H-indole-7-carboxamide], the IC50 in test [2] is ≤ 10 µM.

On to `CCC(CC)N1Cc2ccc(-c3cc(C(N)=O)c4[nH]cc(C5CCN(S(=O)(=O)CC)CC5)c4c3)cc2C1` [Example 423, 5-[2-(1-ethylpropyl)-2,3-dihydro-1H-isoindol-5-yl]-3-[1-(ethylsulfonyl)-4-piperidinyl]-1H-indole-7-carboxamide], for which, in test [2], the IC50 is ≤ 10 µM.

Consider `CCS(=O)(=O)N1CCC(c2c[nH]c3c(C(N)=O)cc(-c4ccc5c(c4)CN(C4CCCC4)C5)cc23)CC1` [Example 424, 5-(2-cyclopentyl-2,3-dihydro-1H-isoindol-5-yl)-3-[1-(ethylsulfonyl)-4-piperidinyl]-1H-indole-7-carboxamide], for which the IC50 in test [2] was ≤ 10 µM.

On to `CCS(=O)(=O)N1CCC(c2c[nH]c3c(C(N)=O)cc(-c4ccc5c(c4)CN(CC4CC4)C5)cc23)CC1` [Example 425, 5-[2-(cyclopropylmethyl)-2,3-dihydro-1H-isoindol-5-yl]-3-[1-(ethylsulfonyl)-4-piperidinyl]-1H-indole-7-carboxamide], for which, in test [2], the IC50 is ≤ 10 µM.

For `CCS(=O)(=O)N1CCC(c2c[nH]c3c(C(N)=O)cc(-c4ccc5c(c4)CN(CC(C)(C)C)C5)cc23)CC1` [Example 426, 5-[2-(2,2-dimethylpropyl)-2,3-dihydro-1H-isoindol-5-yl]-3-[1-(ethylsulfonyl)-4-piperidinyl]-1H-indole-7-carboxamide], the IC50 in test [2] was ≤ 10 µM.

Consider `CCS(=O)(=O)N1CCC(c2c[nH]c3c(C(N)=O)cc(-c4ccc5c(c4)CN(C(=O)NS(=O)(=O)c4ccccc4)C5)cc23)CC1` [Example 428, 3-[1-(ethylsulfonyl)-4-piperidinyl]-5-(2-{[(phenylsulfonyl)amino]carbonyl}-2,3-dihydro-1H-isoindol-5-yl)-1H-indole-7-carboxamide], for which the IC50 in test [2] was ≤ 10 µM.
